Structures are written as SMILES. “Also recorded” adds a separate entry of the source.

The values below come from patent publication US20250382640A1, “LIPID NANOPARTICLES FOR DELIVERY OF NUCLEIC ACIDS” (Juno Therapeutics, Inc., priority 2022, published 2025).

One data set has as its system primary human T cells. Put plainly: Transient transfection of activated primary human T cells with DNA LNPs, GFP expression by flow cytometry. In kind it is cell-based. Here is the method:
Separate compositions of CD4+ and CD8+ cells were selected by immunoaffinity-based enrichment from isolated PBMCs from leukapheresis samples from four healthy human donors. The selected cell compositions were cryopreserved, subsequently thawed and combined in culture at a 1:1 ratio of viable CD4+ to viable CD8+ cells. The combined CD4+ and CD8+ cell composition was then incubated for 48 hours with anti-CD3/CD28 beads (1:1 cell-to-bead ratio) in media containing recombinant IL-2, IL-7, and IL-15 to activate (stimulate) the T cells. […] The cells were cultured in media supplemented with 1 μg/mL of apolipoprotein E4 (ApoE4) to support cellular uptake of the LNPs.
Cells were analyzed by flow cytometry 24 to 48 hours after transfection to determine cell viability and transient GFP expression. Cell viability was determined by quantification of dead cells using SYTOX™ blue dead cell stain and GFP expression was determined via flow cytometry.
Formulations as described in Table E4 were used to transiently transfect human T cells at a 6.0 μg/mL DNA dosing concentration (final concentration with cells), and the effects of varying the described parameters on cell viability and transfection efficiency of T cells were assessed. A combined CD4+ and CD8+ T cell composition was generated and activated substantially as described in Example 2, and incubated in media with […] ApoE4 and LNPs generated from the various formulations for approximately 24 hours at 37° Celsius, 5% CO2, to allow for transfection. Following incubation, cells were assessed for viability and transfection efficiency as described in Example 2. Increasing ionizable lipid mass fraction percentage decreased transfection efficiency (p<0.05; left panel of FIGS. 6A), while there was no statistically significant effect of helper lipid or PEG lipid mass fraction percentage on transfection efficiency (middle and right panels, respectively, of FIG. 6A).

Data set [1] in a line: DNA loading into LNPs, Quant-iT PicoGreen dsDNA assay. In kind it is physicochemical. As to conditions: Example 4a, Table E14 formulations. Here is the method: The resulting LNPs were sized by dynamic light scattering (DLS) before being stored overnight at 5 Celsius. Following overnight incubation, the LNPs were again sized by DLS, and then sterile filtered in a biosafety cabinet. LNPs having an Z-average particle size greater than 200 nm in diameter were filtered using a 0.45 µm filter. All other LNPs were filtered using a 0.2 µm filter. Following sterile filtration, the LNPs were sized a final time by DLS. The LNPs were also assessed for DNA loading, as determined by the Quant-iT™ PicoGreen™ dsDNA broad range DNA assay. Percent DNA loading was calculated as 100×(signal of sample with Triton-X−signal of sample in DI water)/(signal of sample with Triton-X).

`CCCCC/C=C\C/C=C\CCCCCCCC(=O)OCCCCN(CCCCOC(=O)CCCCCCC/C=C\C/C=C\CCCCC)CCCCC1NC(=O)C(CCCCN(CCCCOC(=O)CCCCCCC/C=C\C/C=C\CCCCC)CCCCOC(=O)CCCCCCC/C=C\C/C=C\CCCCC)NC1=O` (stereo not shown) [OF-C4-Deg-Lin]: the “transient transfection in T cells (GFP expression)” value in the data set with primary human T cells (F9 and F9A formulations with various ionizable lipids, 24 hours) is “highest levels of transient transfection”.
Consider `CCCCC/C=C\C/C=C\CCCCCCCCC1(CCCCCCCC/C=C\C/C=C\CCCCC)OCC(CCN(C)C)O1` (stereo not shown) [DLin-KC2-DMA, 2,2-dilinoleyl-4-dimethylaminoethyl-[1,3]-dioxolane], for which the DNA loading result in data set [1] is listed as “consistently high DNA loading”. The transfection efficiency entry was “higher transfection efficiency compared to the other lipids; also recorded: highest transfection efficiency” with primary human T cells (Example 4a, alkyl chain linker length, Table E14 formulations) and “highest” in the data set on primary human T cells (Example 4b, heterocyclic headgroup, Table E16 formulations).
